Measurements: the NIST ThermoML archive (doi:10.1016/j.jct.2016.02.025)

Assays:
[1] = 100 kPa; for speed of sound: Frequency=3 MHz, Sing-around technique in a fixed-path interferometer; for mass density: Vibrating tube method
[2] = refractive index (Na D-line) (dimensionless); settings: 100 kPa, Standard Abbe refractometry

CCCCCCCCn1cc[n+](C)c1.[Br-] [1-methyl-3-octylimidazolium bromide]
Liquid
Settings	mass density, [1] [kg/m3]	refractive index, [2]	speed of sound, [1] [m/s]
293.15 K	1179.3	1.498	1481.8
298.15 K	1175.69	1.49656	1467.6
303.15 K	1172.08	1.49502	1454.3
308.15 K	1168.54	1.49347	1441.4
313.15 K	1165.04	1.49176	1428.8
318.15 K	1161.52	1.49008	1416.5
323.15 K	1157.99	1.48842	1404.4

CCCCCCn1cc[n+](C)c1.[Br-] [3-hexyl-1-methyl-1H-imidazolium bromide]
Liquid
Settings	mass density, [1] [kg/m3]	refractive index, [2]	speed of sound, [1] [m/s]
293.15 K	1227.46	1.51183	1609.1
298.15 K	1223.74	1.50982	1588.1
303.15 K	1220.31	1.50796	1570.4
308.15 K	1216.69	1.50612	1552.3
313.15 K	1213.05	1.50427	1534.4
318.15 K	1209.41	1.50232	1517.4
323.15 K	1205.58	1.50047	1500

CCCCn1cc[n+](C)c1.[Br-] [1-butyl-3-methylimidazolium bromide]
Metastable liquid
Settings	mass density, [1] [kg/m3]	refractive index, [2]	speed of sound, [1] [m/s]
293.15 K	1293.44	1.54699	1675.2
298.15 K	1290.02	1.54575	1665.7
303.15 K	1286.59	1.54445	1656
308.15 K	1283.16	1.54312	1646
313.15 K	1279.72	1.54186	1636.1
318.15 K	1276.28	1.54052	1626.7
323.15 K	1272.84	1.53928	1616.8
